Laboratory results from patent US7208612B2 (priority 2001, dated 2007).

Columns and labels:
V. harveyi LuxS- strain = type: cell-based, Vibrio harveyi
[1] = system: V. harveyi LuxP+, LuxS+ reporter strain (AI-2 detection system); assay: Bioluminescence (light production) bioassay in LuxP+, LuxS+ reporter strain that produces its own AI-2; type: cell-based, Vibrio harveyi

## C[C@@H](O)CC(=O)N[C@H]1CCOC1=O [AI-1]
V. harveyi LuxS- strain; latter strains (incl. LuxS-), same experimental conditions
  response to autoinducer: wild-type responses

## OB(O)O [Boric acid]
V. harveyi LuxS- strain; LuxS- strain
  effect on bioluminescence: no effect
[1]; addition of 1 mM boric acid during delay period
  induction of light production: substantial induction
[1]; boric acid concentrations as low as 10 μM
  induction of light production (fold): 10 fold
